In US8921368B2, “Pyrrolopyridazine JAK3 inhibitors and their use for the treatment of inflammatory and autoimmune diseases” (Bristol-Myers Squibb Company, priority 2011, dated 2014) one finds IC50 data, which are given here for 14 compounds.

Experiment [1] has as its target JAK1 (Homo sapiens (Human), UniProt P23458). As to the kind of experiment: JAK1 Kinase Assay Protocol. The note with it: GST-JAK1; ATP 100 μM; Caliper LabChip; read-out: LLE_JAK1 (IC50). Type of experiment: biochemical. On the procedure:
JAK1 Kinase Assay Protocol
The assay reactions were performed in U-bottom 384-well plates. The final assay volume was 30 μl prepared from 15 μl additions of enzyme and substrates (fluoresceinated peptide and ATP) and test compounds in assay buffer (20 mM HEPES pH 7.4, 10 mM MgCl2, 25 mM beta-glycerol phosphate, 0.015% Brij35 and 4 mM DTT). The reaction was initiated by the combination of GST-JAK1 enzyme with substrates and test compounds. The reactions were incubated at room temperature for 3 hours and terminated by adding 60 μl of 35 mM EDTA to each sample. […] The final concentration of reagents in the assays was: ATP, 100 μM; fluoresceinated peptide, 1.5 μM; GST-JAK1, 12.5 nM; and DMSO, 1.6%. […] Compounds were dissolved at 10 mM in dimethylsulfoxide (DMSO) and evaluated at eleven concentrations. IC50 values were derived by non-linear regression analysis.

Experiment [2] deals with JAK3 (Homo sapiens (Human), UniProt P52333). As to the kind of experiment: JAK3 Kinase Assay (Caliper / Filter protocols). In kind it is biochemical. Particulars: JAK3 kinase inhibition; ATP 8 μM; read-out: LLE_JAK3_FB (IC50). How it is done: JAK3 Kinase Assay Protocol (Caliper)
Sequence of JAK3 (P52333 whole entry): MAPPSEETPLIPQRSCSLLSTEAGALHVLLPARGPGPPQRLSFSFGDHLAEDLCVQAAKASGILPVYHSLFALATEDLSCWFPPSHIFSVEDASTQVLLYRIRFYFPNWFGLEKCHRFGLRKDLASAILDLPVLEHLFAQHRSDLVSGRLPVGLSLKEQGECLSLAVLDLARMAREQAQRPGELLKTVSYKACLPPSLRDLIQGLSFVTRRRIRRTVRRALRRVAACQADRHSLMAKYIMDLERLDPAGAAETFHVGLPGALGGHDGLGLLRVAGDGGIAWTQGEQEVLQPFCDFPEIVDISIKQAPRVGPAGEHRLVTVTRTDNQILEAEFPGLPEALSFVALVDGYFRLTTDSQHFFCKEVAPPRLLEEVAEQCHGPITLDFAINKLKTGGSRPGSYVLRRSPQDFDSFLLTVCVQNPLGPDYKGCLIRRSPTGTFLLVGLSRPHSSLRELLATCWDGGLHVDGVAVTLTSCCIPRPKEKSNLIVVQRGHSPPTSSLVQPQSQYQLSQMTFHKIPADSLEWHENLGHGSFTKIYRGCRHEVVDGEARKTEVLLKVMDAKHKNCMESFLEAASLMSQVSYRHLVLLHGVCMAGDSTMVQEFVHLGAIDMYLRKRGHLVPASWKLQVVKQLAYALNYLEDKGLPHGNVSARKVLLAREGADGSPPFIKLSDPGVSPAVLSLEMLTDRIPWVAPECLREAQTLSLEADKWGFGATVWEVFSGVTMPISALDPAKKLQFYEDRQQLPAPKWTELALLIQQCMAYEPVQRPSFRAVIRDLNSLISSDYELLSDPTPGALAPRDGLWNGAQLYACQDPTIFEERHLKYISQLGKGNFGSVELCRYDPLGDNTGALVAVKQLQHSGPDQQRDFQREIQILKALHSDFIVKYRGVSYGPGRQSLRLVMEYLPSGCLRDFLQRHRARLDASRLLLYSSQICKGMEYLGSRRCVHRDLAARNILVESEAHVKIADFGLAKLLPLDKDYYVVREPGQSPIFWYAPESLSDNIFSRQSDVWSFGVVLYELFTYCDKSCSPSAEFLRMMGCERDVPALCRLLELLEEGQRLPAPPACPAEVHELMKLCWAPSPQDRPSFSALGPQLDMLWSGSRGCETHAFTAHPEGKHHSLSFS
The assay reactions were performed in U-bottom 384-well plates. […] The reaction was initiated by the combination of GST-JAK3 enzyme with substrates and test compounds. The reactions were incubated at room temperature for 3 hours and terminated by adding 60 μl of 35 mM EDTA to each sample. […] Compounds were dissolved at 10 mM in dimethylsulfoxide (DMSO) and evaluated at eleven concentrations. IC50 values were derived by non-linear regression analysis.
JAK3 Kinase Assay Protocol (Filter)
Kinase reactions consisted of 5 ng of JAK3 enzyme, 30 uM CSKtide substrate, 0.2 μCi ^33P γ-ATP, 8 μM ATP in 30 μl kinase buffer (50 mM Hepes, pH 8.0, 10 mM MgCl2, 1 mM EGTA, 2 mM DTT). Reactions were incubated for 30 minutes at room temperature and stopped by the addition of cold trichloroacetic acid (TCA) to a final concentration of 15%. TCA precipitates were collected onto 384 well phosphocellulose filters (Millipore) using a Platemate to transfer the reaction mixture, washed on an EMBLA plate washer and the filters were quantitated using a TopCount 384-well liquid scintillation counter. […] Compounds were dissolved at 10 mM in dimethylsulfoxide (DMSO) and evaluated at six concentrations, each in triplicate. The final concentration of DMSO in the assay equaled 2%. IC50 values were derived by non-linear regression analysis.

pIC50: −log10 of the molar value.

One may read the pIC50 as the negative decadic logarithm of the IC50, by convention in mol/L.

Sequence of JAK1 (P23458 whole entry): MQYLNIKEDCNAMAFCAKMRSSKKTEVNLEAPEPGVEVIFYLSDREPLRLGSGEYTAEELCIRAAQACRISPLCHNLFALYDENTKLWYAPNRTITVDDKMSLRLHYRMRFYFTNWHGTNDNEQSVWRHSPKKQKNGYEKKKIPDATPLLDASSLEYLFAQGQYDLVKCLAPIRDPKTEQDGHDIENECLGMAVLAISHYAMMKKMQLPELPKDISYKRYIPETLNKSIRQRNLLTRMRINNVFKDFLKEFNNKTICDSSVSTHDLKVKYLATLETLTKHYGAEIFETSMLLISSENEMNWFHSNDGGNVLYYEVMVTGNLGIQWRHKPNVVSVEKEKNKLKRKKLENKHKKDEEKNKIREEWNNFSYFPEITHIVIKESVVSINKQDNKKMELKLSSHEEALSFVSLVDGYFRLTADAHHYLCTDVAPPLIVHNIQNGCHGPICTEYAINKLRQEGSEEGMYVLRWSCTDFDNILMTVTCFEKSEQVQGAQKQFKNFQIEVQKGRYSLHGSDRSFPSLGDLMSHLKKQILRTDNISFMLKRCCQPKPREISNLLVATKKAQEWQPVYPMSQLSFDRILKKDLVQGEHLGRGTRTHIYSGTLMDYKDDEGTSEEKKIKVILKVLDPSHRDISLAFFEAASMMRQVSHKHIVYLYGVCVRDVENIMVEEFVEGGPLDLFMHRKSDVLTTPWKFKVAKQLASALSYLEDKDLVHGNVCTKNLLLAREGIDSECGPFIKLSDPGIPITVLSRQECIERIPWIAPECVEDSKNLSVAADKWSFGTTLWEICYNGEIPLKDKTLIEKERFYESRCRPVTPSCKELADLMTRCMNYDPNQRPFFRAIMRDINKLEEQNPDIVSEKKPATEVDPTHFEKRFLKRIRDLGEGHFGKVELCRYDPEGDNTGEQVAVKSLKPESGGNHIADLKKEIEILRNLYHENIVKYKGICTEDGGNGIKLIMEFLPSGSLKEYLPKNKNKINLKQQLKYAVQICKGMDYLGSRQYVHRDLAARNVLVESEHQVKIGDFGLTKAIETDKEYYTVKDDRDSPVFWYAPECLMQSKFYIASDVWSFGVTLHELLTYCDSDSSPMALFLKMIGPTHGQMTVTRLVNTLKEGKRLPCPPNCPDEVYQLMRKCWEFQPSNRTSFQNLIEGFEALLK

For the compound `COc1ncc(-c2cc3c(N[C@@H]4CC[C@](C)(N)C4(C)C)c(C(N)=O)cnn3c2)cn1` [Example 278, 4-(((1R,3S)-3-amino-2,2,3-trimethylcyclopentyl)amino)-6-(2-methoxy-5-pyrimidinyl)pyrrolo[1,2-b]pyridazine-3-carboxamide], the negative logarithm of the IC50 (pIC50) in experiment [1] was 7.60; in experiment [2], 8.08.

Take `CC1(C)[C@H](Nc2c(C(N)=O)cnn3cc(-c4ccccc4)cc23)CC[C@]1(C)C(N)=O` [Example 337, 4-((1R,3S)-3-carbamoyl-2,2,3-trimethylcyclopentylamino)-6-phenylpyrrolo[1,2-b]pyridazine-3-carboxamide]: the figures for the negative logarithm of the IC50 (pIC50) in experiment [1] and in experiment [2] were 8.85 and 9.40, respectively.

On to `CC(=O)Nc1ccccc1-c1cc2c(N[C@@H]3CC[C@](C)(N)C3(C)C)c(C(N)=O)cnn2c1` [Example 257, 6-(2-acetamidophenyl)-4-(((1R,3S)-3-amino-2,2,3-trimethylcyclopentyl)amino)pyrrolo[1,2-b]pyridazine-3-carboxamide], for which the results for the negative-log IC50 (pIC50) in experiment [1] and in experiment [2] were 7.52 and 7.43, respectively.

As to `CC1(C)[C@H](Nc2c(C(N)=O)cnn3cc(-c4ccc(F)nc4)cc23)CC[C@]1(C)C(N)=O` [Example 339, 4-(((1R,3S)-3-carbamoyl-2,2,3-trimethylcyclopentyl)amino)-6-(6-fluoropyridin-3-yl)pyrrolo[1,2-b]pyridazine-3-carboxamide], the values for the negative logarithm of the IC50 (pIC50) in experiment [1] and in experiment [2] were 8.66 and 8.72, respectively.

Consider `CC1(C)CCC[C@H]1Nc1c(C(N)=O)cnn2cc(-c3ccccc3)cc12` [Example 304, 4-(((1R)-2,2-dimethylcyclopentyl)amino)-6-phenylpyrrolo[1,2-b] pyridazine-3-carboxamide], for which the figures for the pIC50 in experiment [1] and in experiment [2] were 8.54 and 9.30, respectively.

Regarding `CC1(C)[C@H](Nc2c(C(N)=O)cnn3cc(-c4ccc(C(=O)NC5CC5)cc4)cc23)CC[C@]1(C)N` [Example 221, 4-(((1R,3S)-3-amino-2,2,3-trimethylcyclopentyl)amino)-6-(4-(cyclopropylcarbamoyl)phenyl)pyrrolo[1,2-b] pyridazine-3-carboxamide], the pIC50 in experiment [1] is 9.15; in experiment [2], 8.80.

For `Cn1nccc1-c1cc2c(N[C@@H]3C[C@@H](O)[C@@H](O)C3(C)C)c(C(N)=O)cnn2c1` (racemic) [Example 142], the figures for the negative logarithm of the IC50 (pIC50) in experiment [1] and in experiment [2] were 7.96 and 8.25, respectively.

As for `CC(C)c1ccccc1-c1cc2c(N[C@@H]3CCC[C@]3(C)F)c(C(N)=O)cnn2c1` (racemic) [Example 60], the pIC50 was 6.60 in experiment [1] and 6.87 in experiment [2].

With `Cc1ccncc1-c1cc2c(N[C@@H]3CC[C@](C)(N)C3(C)C)c(C(N)=O)cnn2c1` [Example 195, 4-(((1R,3S)-3-amino-2,2,3-trimethylcyclopentyl)amino)-6-(4-methyl-3-pyridinyl)pyrrolo[1,2-b] pyridazine-3-carboxamide], the results for the pIC50 in experiment [1] and in experiment [2] were 8.89 and 8.21, respectively.

With `C[C@]1(O)CCCC[C@@H]1Nc1c(C(N)=O)cnn2cc(-c3ccccc3)cc12` (racemic) [Example 314, (+/−)-4-(((1S,2S)-2-hydroxy-2-methylcyclohexyl)amino)-6-phenylpyrrolo[1,2-b]-pyridazine-3-carboxamide], the pIC50 is 7.76 in experiment [1] and 8.29 in experiment [2].

As for `C[C@]1(F)CCC[C@H]1Nc1c(C(N)=O)cnn2cc(N3CCOC3=O)cc12` [Example 317], the pIC50 in experiment [1] is 7.87; in experiment [2], 8.17.

On to `C[C@]1(F)CCC[C@H]1Nc1c(C(N)=O)cnn2cc(N3CCOCC3=O)cc12` (racemic) [Example 318], for which the pIC50 in experiment [1] is 7.87; in experiment [2], 8.15.

With `CC1(C#N)CCCC1Nc1c(C(N)=O)cnn2cc(-c3ccccc3)cc12` (stereo not shown) [Example 123], the negative logarithm of the IC50 (pIC50) in experiment [1] is 9.00; in experiment [2], 9.70.

With `CC1(C)[C@H](Nc2c(C(N)=O)cnn3cc(N4CCC4=O)cc23)CC[C@]1(C)N` [Example 332], the values for the negative logarithm of the IC50 (pIC50) in experiment [1] and in experiment [2] were 7.12 and 8.06, respectively.
